Data: patent US12522606B2, “Modified pyrrolo- and pyrazolo-pyrimidines for prostate cancer therapy” (University of Washington, priority 2020, dated 2026)
Where two headings read alike, the source gives them in different places.

Experiments:
APIPC = experiment: Proliferation EC50, APIPC; type: cell-based; settings: Table 2
LNCaP95 = experiment: MTT proliferation assay, LNCaP95; type: cell-based; settings: Homo sapiens, LNCaP-95
Method: (§1) Anti-tumor activity was determined by screening a series of compounds against the castrate-resistant, androgen-receptor-positive, prostate cancer cell line LNCaP95. […] Inhibition of proliferation was determined based on the level of LNCaP95 cell growth suppression using an MTT assay (NAD(P)H-dependent cellular oxidoreductase enzymatic activities)) read at 72 and 96 hours after addition of the compounds. […] Each cell line was be tested in quadruplicate.

[1] = Plasma protein binding, mouse; type: in vitro ADME
[2] = Plasma protein binding, human; type: in vitro ADME
U2OS = experiment: Proliferation EC50, U2OS; type: cell-based; settings: Homo sapiens, Table 2
Method: as §1
(§2) C4-2 and C4-2B3 are derived from LNCaP but have different characteristics. […] LNCaP, C4-2 and C4-2B require androgen receptor but only LNCaP line is androgen sensitive.
(§3) RWPE-1 is immortalized benign prostate hypertrophic cell line. […] LAPC4 is AR+ castrate resistant line not LNCaP-based prostate cancer. […] HFF1 is human foreskin fibroblast cell line. NCI-H660 is neuroendocrine (NE) prostate cancer human AR− cell line. MSKCC-EF1 is NE human prostate AR- or nearly negative prostate cancer cell line. MCF7 is human breast cancer cell line. U2OS is human osteosarcoma cell line. HepG2 is hepatoma liver tumor cell line. CRL8155 is lymphoblastoid cell line.

LNCaP cells = experiment: Cell death in LNCaP cells, alone or in combination, 24 h (FIG. 6); type: cell-based
Method: FIG. 6 evaluation of Compound 1 and metformin in LNCaP cells. LNCaP cells were treated with Compound 1, oligomycin (Oli), 2-deoxy-d-glucose (2-DG), or metformin (Met), alone or in combination for 24 h.
FIGS. 2-4 provide additional results on the activity of the compounds of the disclosure. […] Co-administration of Compound 1 and metformin is illustrated in FIG. 6. LNCaP cells were treated with Compound 1, oligomycin (Oli), 2-deoxy-d-glucose (2-DG), or metformin (Met), alone or in combination for 24 h. […] None of compounds were sufficient to kill cells under the same conditions on their own.

hERG = hERG (Homo sapiens, UniProt Q12809); experiment: hERG; settings: Table 1; last column beside CC50 (μM), own unit not clearly printed
HFF-1 = experiment: Proliferation EC50, HFF-1; type: cell-based; settings: Homo sapiens, Table 2
Method: as §1, §2, §3

LNCaP = experiment: MTT proliferation assay, LNCaP; settings: Homo sapiens
HEPG2 = experiment: Cell toxicity, HEPG2 hepatoma cell line; settings: read-out: EC50 HepG2; Table 2
42D = experiment: Proliferation EC50, 42D; type: cell-based; settings: Table 2
DU145 = experiment: Proliferation EC50, DU145; type: cell-based; settings: Homo sapiens, DU-145; Table 2
NCI-H660 = experiment: Proliferation EC50, NCI-H660; type: cell-based; settings: Homo sapiens, Table 2
Method: as §1, §2, §3

LAPC4 = experiment: Proliferation EC50, LAPC4; type: cell-based; settings: Homo sapiens, Table 2
Method: as §1, §2, §3

[3] = Cell death when mitochondria respiration is blocked (FIGS. 5A-5C); type: cell-based
PC3 = experiment: MTT proliferation assay, PC3; settings: Homo sapiens
MSKCC-EF1 = experiment: Proliferation EC50, MSKCC-EF1; type: cell-based; settings: Homo sapiens; Table 2
Method: as §1, §2, §3

[4] = test system: intracellular ATP in LNCaP95; experiment: Intracellular ATP in LNCaP95 (CellTiter-Glo); type: cell-based; settings: FIG. 1, without oligomycin
Method: The relative intracellular levels of ATP were evaluated by CellTiter-Glo® Luminescent Cell Viability Assay. 2-DG is 2-deoxy-d-glucose.
OXPHOS is oxidative phosphorylation; oligo is oligomycin; AA is antimycin A; ETX is etomoxir; FCCP is carbonyl cyanide-4-trifluoromethoxy)phenylhydrazone; and Rot is rotenone.

42F = experiment: Proliferation EC50, 42F; type: cell-based; settings: Table 2
ATP levels = experiment: Time course of ATP levels, Compound 1 with oligomycin (FIG. 4); type: cell-based; settings: co-administration with oligomycin
MCF7 = experiment: Proliferation EC50, MCF7; type: cell-based; settings: Homo sapiens, Table 2
Method: as §1, §2, §3

16D = experiment: Proliferation EC50, 16D; type: cell-based; settings: Table 2
PK Oral (MMV) = type: in vivo; settings: dose 25 mg/kg
RWPE-1 = experiment: Proliferation EC50, RWPE-1; type: cell-based; settings: Homo sapiens, Table 2
Method: as §1, §2, §3

CRL-8155 = experiment: Cell toxicity, CRL-8155 lymphoblastoid cell line; settings: read-out: EC50 CRL8155; Table 2
C4-2 = experiment: Proliferation EC50, C4-2; type: cell-based; settings: Table 2
Method: as §1, §2

[5] = Plasma protein binding, rat; type: in vitro ADME
in vitro [6] = settings: human, CRL-8155 lymphoblastoid cell line
C4-2B = experiment: Proliferation EC50, C4-2B; type: cell-based; settings: Table 2
Method: as §1, §2

in vitro [7] = settings: human, HepG2 hepatoma cell line

hERG, sequence (Q12809 whole entry): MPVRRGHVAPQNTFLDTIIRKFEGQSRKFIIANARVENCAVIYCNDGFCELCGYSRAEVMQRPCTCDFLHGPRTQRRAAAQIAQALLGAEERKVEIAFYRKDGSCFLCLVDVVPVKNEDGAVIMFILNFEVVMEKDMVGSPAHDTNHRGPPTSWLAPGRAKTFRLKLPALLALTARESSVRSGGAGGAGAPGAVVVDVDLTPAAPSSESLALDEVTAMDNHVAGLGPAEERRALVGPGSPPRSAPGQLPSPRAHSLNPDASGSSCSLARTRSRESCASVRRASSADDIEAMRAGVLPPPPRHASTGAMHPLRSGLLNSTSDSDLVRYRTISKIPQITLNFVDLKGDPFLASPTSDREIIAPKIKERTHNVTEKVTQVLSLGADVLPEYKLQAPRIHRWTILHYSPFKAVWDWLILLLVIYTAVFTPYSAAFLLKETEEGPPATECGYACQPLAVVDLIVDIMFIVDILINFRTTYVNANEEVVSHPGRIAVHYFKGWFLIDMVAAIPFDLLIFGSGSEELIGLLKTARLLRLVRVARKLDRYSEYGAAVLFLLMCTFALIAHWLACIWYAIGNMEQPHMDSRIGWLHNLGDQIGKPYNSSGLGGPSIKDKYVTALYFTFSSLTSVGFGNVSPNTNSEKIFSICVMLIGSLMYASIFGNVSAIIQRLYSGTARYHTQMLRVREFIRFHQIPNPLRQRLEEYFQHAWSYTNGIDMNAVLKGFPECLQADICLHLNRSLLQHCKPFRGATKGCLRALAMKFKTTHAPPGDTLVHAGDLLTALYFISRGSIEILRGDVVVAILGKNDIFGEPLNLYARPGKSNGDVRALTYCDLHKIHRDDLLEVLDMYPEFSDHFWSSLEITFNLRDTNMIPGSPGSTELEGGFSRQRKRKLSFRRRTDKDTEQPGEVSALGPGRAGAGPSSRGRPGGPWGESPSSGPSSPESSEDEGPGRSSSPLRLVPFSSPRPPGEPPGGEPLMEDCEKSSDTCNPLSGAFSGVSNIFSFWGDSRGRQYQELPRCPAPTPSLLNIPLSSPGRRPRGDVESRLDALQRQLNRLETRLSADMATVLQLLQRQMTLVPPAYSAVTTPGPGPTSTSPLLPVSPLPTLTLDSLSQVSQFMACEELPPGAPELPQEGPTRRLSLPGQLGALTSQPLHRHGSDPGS

CNc1ncnc2c1c(-c1ccc3cc(OC4CC4)ccc3c1)nn2CC(C)(C)O [Example 1, 1-(3-(6-cyclopropoxynaphthalen-2-yl)-4-(methylamino)-1H-pyrazolo[3,4-d]pyrimidin-1-yl)-2-methylpropan-2-ol]
EC50 (APIPC): 10 µM
EC50 (LNCaP95; Table 1, LNCaP95 (AR+ PCa), unit inferred): 5 µM
inhibition at 10 µM (LNCaP95; read-out: MTT % inhib @ 10 μM LNCaP95): 51.5%
fraction unbound [1]: 0.012
fraction unbound [2]: 0.007
EC50 (U2OS): > 20 µM
cell death in combination with oligomycin or metformin (LNCaP cells): cause cell death
hERG (hERG): 13.9
EC50 (HFF-1): > 20 µM
EC50 (LNCaP; read-out: EC50 LNCaP): 8 µM
inhibition at 10 µM (LNCaP; read-out: MTT % inhib @ 10 μM LNCaP): 35.4%
EC50 (HEPG2): > 40 µM
EC50 (42D): 10 µM
EC50 (DU145): > 20 µM
EC50 (NCI-H660): 10 µM
EC50 (LAPC4): 7 µM
cell death when mitochondria respiration is blocked [3]: induces cell death
EC50 (PC3; PC-3, read-out: EC50 PC3): > 20 µM
inhibition at 10 µM (PC3; PC-3, read-out: MTT % inhib @ 10 μM PC3): 16.8%
EC50 (PC3; read-out: EC50 PC3): > 20 µM
EC50 (MSKCC-EF1): 5 µM
change in ATP levels, compound alone [4]: no change
EC50 (42F): 20 µM
earliest time at which ATP levels are altered (ATP levels): 10 min
EC50 (MCF7): 8 µM
EC50 (16D): 10 µM
AUC (PK Oral (MMV)): 28935 µmol·min/L
Cmax (PK Oral (MMV); in vivo): 34 µM
Tmax (PK Oral (MMV); in vivo): 3 h
EC50 (RWPE-1): > 20 µM
EC50 (CRL-8155): > 40 µM
EC50 (C4-2): 12 µM
fraction unbound [5]: 0.04
CC50 (in vitro [6]): > 80 µM
EC50 (C4-2B): 12 µM
CC50 (in vitro [7]): > 80 µM
